Data taken from PubChem BioAssay AID1918998 (Molecular Pharmacology Branch, DTP, NCI, 2023).

System: 521955-158-R2-J5-PDC complex spheroid growth
Experiment: Anticancer human tumor 521955-158-R2-J5-PDC patient-derived pancreatic carcinoma cell line growth inhibition [AhR]
Conditions: for IC50: curve of first compound; for viability, T/C: stronger effect = lower value
Outline: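 Complex tumor spheroids co-cultured with HUVEC and human MSC stroma; AhR antagonists tested in combination with standard-of-care and investigational agents. Top concentration at or near clinical Cmax (else 10 microM), half-log dilutions; growth expressed as percent test/control.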

[1] = second compound 0.1 µM, first compound 0.0316 µM
[2] = second compound 0.1 µM, first compound 0.1 µM
[3] = second compound 0.1 µM, first compound 0.316 µM
[4] = second compound 0.1 µM, first compound 1 µM
[5] = second compound 0.316 µM, first compound 0.0316 µM
[6] = second compound 0.316 µM, first compound 0.1 µM
[7] = second compound 0.316 µM, first compound 0.316 µM
[8] = second compound 0.316 µM, first compound 1 µM
[9] = second compound 1 µM, first compound 0.0316 µM
[10] = second compound 1 µM, first compound 0.1 µM
[11] = second compound 1 µM, first compound 0.316 µM
[12] = second compound 1 µM, first compound 1 µM
[13] = second compound 3.16 µM, first compound 0.0316 µM
[14] = second compound 3.16 µM, first compound 0.1 µM
[15] = second compound 3.16 µM, first compound 0.316 µM
[16] = second compound 3.16 µM, first compound 1 µM
[17] = second compound 10 µM, first compound 0.0316 µM
[18] = second compound 10 µM, first compound 0.1 µM
[19] = second compound 10 µM, first compound 0.316 µM
[20] = second compound 10 µM, first compound 1 µM
[21] = second compound 0.1 µM, first compound 0.00316 µM
[22] = second compound 0.1 µM, first compound 0.01 µM
[23] = second compound 0.316 µM, first compound 0.00316 µM
[24] = second compound 0.316 µM, first compound 0.01 µM
[25] = second compound 1 µM, first compound 0.00316 µM
[26] = second compound 1 µM, first compound 0.01 µM
[27] = second compound 3.16 µM, first compound 0.00316 µM
[28] = second compound 3.16 µM, first compound 0.01 µM
[29] = second compound 10 µM, first compound 0.00316 µM
[30] = second compound 10 µM, first compound 0.01 µM
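For viability, T/C in this document: spheroids mix tumor cells with HUVEC endothelium and human MSC stroma; luminescence taken as viability surrogate after a week of drug exposure.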

SMILES	IC50 (second compound 0.1 µM)	IC50 (second compound 0.316 µM)	IC50 (second compound 1 µM)	IC50 (second compound 3.16 µM)	IC50 (second compound 10 µM)	viability, T/C [1]	viability, T/C [2]	viability, T/C [3]	viability, T/C [4]	viability, T/C [5]	viability, T/C [6]	viability, T/C [7]	viability, T/C [8]	viability, T/C [9]	viability, T/C [10]	viability, T/C [11]	viability, T/C [12]	viability, T/C [13]	viability, T/C [14]	viability, T/C [15]	also measured
CC(C)c1c(-c2ccccc2)nc2c(C#N)c[nH]n2c1=O + Cc1cncc(-c2nc(NCCc3c[nH]c4ccccc34)c3ncn(C(C)C)c3n2)c1	> 10000 nM	> 10000 nM	> 10000 nM	> 10000 nM	> 10000 nM	96.9%	112%	114%	101%	101%	137%	98.9%	106%	133%	142%	127%	112%	169%	151%	146%	viability, T/C (second compound 0.1 µM, first compound 3.16 µM): 98.7%; viability, T/C (second compound 0.1 µM, first compound 10 µM): 94.6%; viability, T/C (second compound 0.316 µM, first compound 3.16 µM): 95.7%; viability, T/C (second compound 0.316 µM, first compound 10 µM): 94.6%; viability, T/C (second compound 1 µM, first compound 3.16 µM): 106%; viability, T/C (second compound 1 µM, first compound 10 µM): 105%; viability, T/C [16]: 134%; viability, T/C (second compound 3.16 µM, first compound 3.16 µM): 131%; viability, T/C (second compound 3.16 µM, first compound 10 µM): 136%; viability, T/C [17]: 134%; viability, T/C [18]: 147%; viability, T/C [19]: 153%; viability, T/C [20]: 143%; viability, T/C (second compound 10 µM, first compound 3.16 µM): 118%; viability, T/C (second compound 10 µM, first compound 10 µM): 124%
Nc1ncn(C2CC(O)C(CO)O2)c(=O)n1 (stereo not given) + Cc1cncc(-c2nc(NCCc3c[nH]c4ccccc34)c3ncn(C(C)C)c3n2)c1	936 nM	> 1000 nM	> 1000 nM	> 1000 nM	> 1000 nM	101%	95.4%	79.6%	48.2%	96.4%	82.7%	63.9%	55.7%	121%	93.9%	82.3%	57.5%	145%	119%	115%	viability, T/C [21]: 92.4%; viability, T/C [22]: 84.2%; viability, T/C [23]: 102%; viability, T/C [24]: 99%; viability, T/C [25]: 112%; viability, T/C [26]: 117%; viability, T/C [27]: 148%; viability, T/C [28]: 123%; viability, T/C [16]: 79.8%; viability, T/C [29]: 141%; viability, T/C [30]: 110%; viability, T/C [17]: 152%; viability, T/C [18]: 124%; viability, T/C [19]: 135%; viability, T/C [20]: 76.1%
CC1COCCN1c1cc(-c2ccnn2C)c2ccnc(-c3ccn[nH]3)c2n1 (stereo not given) + Cc1ccccc1N=Nc1ccc(NC(=O)c2ccnn2C)c(C)c1	149 nM	154 nM	152 nM	143 nM	101 nM	122%	66.6%	19.4%	17.9%	127%	70%	17.9%	15.2%	109%	71%	14.2%	13.8%	145%	66.4%	13.4%	viability, T/C [21]: 128%; viability, T/C [22]: 116%; viability, T/C [23]: 122%; viability, T/C [24]: 116%; viability, T/C [25]: 123%; viability, T/C [26]: 138%; viability, T/C [27]: 144%; viability, T/C [28]: 131%; viability, T/C [16]: 14.2%; viability, T/C [29]: 134%; viability, T/C [30]: 154%; viability, T/C [17]: 108%; viability, T/C [18]: 54.5%; viability, T/C [19]: 12.4%; viability, T/C [20]: 15.4%
